From patent US20030157516A1, “G protein coupled receptor” (priority 2000, published 2003)
Values joined by “and” are separate entries in the source; they are usually repeats but may differ in a detail not shown here. Identical values can stand only once.

Tests used:
[1] = target: T1, adenine binding rat receptor (Rattus norvegicus, UniProt Q7TN49); test: [35S]GTPγS binding on CHO membranes transiently transfected; type: biochemical; details: for % stim.: increase above basal
T1 construct: expressed in transfected cells; host or cells: CHO cells, transient, lipofectamine PLUS
T1 sequence (Q7TN49 1-304): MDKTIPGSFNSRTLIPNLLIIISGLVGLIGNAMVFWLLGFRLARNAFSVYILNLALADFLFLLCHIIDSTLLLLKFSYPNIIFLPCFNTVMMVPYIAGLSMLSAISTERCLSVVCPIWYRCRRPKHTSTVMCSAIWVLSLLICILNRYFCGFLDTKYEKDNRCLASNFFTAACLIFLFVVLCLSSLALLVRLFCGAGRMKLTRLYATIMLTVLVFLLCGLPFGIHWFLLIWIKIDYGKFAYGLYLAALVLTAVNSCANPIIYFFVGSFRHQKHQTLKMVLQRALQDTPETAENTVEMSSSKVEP
Procedure: a) Methods—Determination of [^35S ]GTPγS binding to the G-proteins was carried out according to a modified procedure of Lazareno (Methods Mol. Biol., 83:107-116, 1997). These experiments were performed for a first functional evaluation of the receptor on the level of a membrane preparation.
The assay mixture contained 10 and 35 μg of membrane protein for the transfected and wild type CHO cells, respectively.
For testing agonistic activity, 175 μl of diluted membranes was pre-incubated in the buffer described above together with 25 μl of buffer and 25 μl of varying concentrations of the compound in a total volume of 225 μl. After a 20 minute pre-incubation period at 30° C., 25 μl of [^35S]GTPγS was added to a final concentration of 0.25 nM and the assay mixtures were further incubated for 20 minutes at 30° C. Bound and free [^35S]GTPγS were separated by rapid filtration over an UniFilter™-96, GF/B™ under reduced pressure using Filtermate 196 filtration (Packard Company (Netherlands). The amount of bound radioactivity on the filter unit was determined after drying of the filters and scintillant addition (Microscint-O; Packard Company) by liquid scintillation counting.
Basal [^35S]GTPγS binding was measured in absence of compounds. Stimulation by agonist was calculated as the percentage increase above basal levels. The sigmoid agonist concentration-response curves were analyzed by non-linear regression using the GraphPad Prism program. The different concentration points were run in duplicates and the reported data were retrieved from independent experiments.

[2] = target: T1, adenine binding rat receptor; test: cAMP measurements on CHO cells transiently transfected (forskolin stimulated); type: cell-based; details: inhibition of forskolin stimulated cAMP
Procedure: a) Methods—For transiently transfected CHO cells, cAMP measurements were performed using the direct RIA kit from NEN (Belgium).
The cells were collected from 50 mm petri dishes by adding 1 ml 0.04% EDTA and re-suspending them in PBS (without Ca^2+ and Mg^2+). The cells were then centrifuged for 5 minutes at 1,500 RPM, the supernatant was removed and the pellet was re-suspended in stimulation buffer (provided by the supplier, NEN). The cells were counted and 50 μl was added to each well of a 96-well flashplate at a density of 10^6 cells/well. A standard curve of cAMP was prepared in stimulation buffer, covering a range from 10 to 1,000 nM, and 50 μl was added to the flashplate.
The compounds were diluted in PBS with forskolin (at 50 μM), and 50 μl of the ligand, 2 times the final concentration, was added to the cells and incubated for 20 minutes at 37° C. After the 20 minutes incubation, 100 μl of the [^125I]cAMP tracer (2 μCi) was added to each well, resulting in a final volume of 200 μl/well. The plate was left at room temperature, until being counted in the Topcount™ microplate scintillation counter (Packard, Netherlands). The sigmoid concentration response curves (duplicate points) were analyzed using the GraphPad Prism program (GraphPad Software, Calif., USA).
a) Methods: Two days before the experiment the cells were seeded out in a 96 well plate at a density required for approximately 90% confluence at the day of the experiment. After removal of the growth medium, the cells were washed twice with a controlled salt solution (CSS) containing 25 mM Tris-HCl, pH 7.4, 120 mM NaCl, 5.4 mM KCl, 0.8 mM MgCl2, 1.8 mM CaCl2, 15 mM glucose and 15 mg/l phenol red, with an addition of a phosphodiesterase inhibitor IBMX (3-isobutyl-1-methylxanthine) in a concentration of 1 mM and […]. Basal cAMP levels were determined in CSS containing these additives and maximally stimulated cAMP levels were determined in the presence of 50 μM forskolin. For testing agonistic activity, the compounds were incubated with the cells for 20 minutes at 37° C. The reaction was stopped by addition of ice cold HClO4 (1N) and stored at −20° C. After thawing the mixtures were neutralized with an equivalent amount of phosphate buffered KOH, left at 4° C. during 30 minutes to allow the salts to precipitate and centrifuged at 2,000 RPM for 5 minutes at 4° C.
For the quantitative determination of the cAMP levels, a 96-well Flashplate radioimmunoassay kit from NEN was used, according to the protocol of the supplier. The sigmoid concentration response curves (duplicate points) were analyzed using the GraphPad Prism program.

[3] = transiently transfected CHO membranes
[4] = transiently transfected cells, mean of n experiments
[5] = transiently transfected cells, single experiments
[6] = transiently transfected cells, single experiments, read-out: pEC50 (converted)
[7] = direct assay, 0.5% hiFCS, read-out: pEC50 (converted)
[8] = direct assay, 2% hiFCS, read-out: pEC50 (converted)
[9] = indirect assay, 0.5% hiFCS, read-out: pEC50 (converted)

| SMILES | stimulation of the receptor ([35S]GTPγS binding) [1, 3] | % stim. [1, 4] | % stim. [1, 5] | EC50 ([1]; transiently transfected cells, mean of n experiments, read-out: pEC50 (converted)) | EC50 [1, 6] | EC50 [2, 7] | EC50 [2, 8] | EC50 [2, 9] | pEC50 ([2]; indirect assay, 2% hiFCS) | pEC50 [1, 4] | EC50 ([1]; transiently transfected CHO membranes, read-out: mean EC50) | % stim. ([1]; transiently transfected cells, mean of n experiments, listed as adenine) | EC50 ([2]; indirect assay, 2% hiFCS, read-out: pEC50 (converted)) | EC50 ([2]; transiently transfected cells, read-out: EC50) |
| --- | --- | --- | --- | --- | --- | --- | --- | --- | --- | --- | --- | --- | --- | --- |
| Cn1cnc2ncnc-2c1N [1-Methyladenine] | stimulated the receptor partially with a much lower potency | 129% | 90% and 135% and 161% | 15100 nM | 16200 nM and 12000 nM and 17800 nM | 4900 nM | 6310 nM | 7940 nM | no fit |  |  |  |  |  |
| Nc1ncnc2c1ncn2[C@@H]1O[C@H](COP(=O)(O)O)[C@@H](O)[C@H]1O [AMP] | stimulated the receptor partially with a much lower potency | 95% |  |  |  |  |  |  |  | 4.35 |  |  |  |  |
| Nc1ncnc2nc[nH]c12 [Adenine, adenine] |  | 148% | 177% and 199% and 106% and 111% |  | 95.5 nM and 115 nM and 132 nM | 20.9 nM | 7.08 nM | 3.31 nM |  |  | 112 nM | 150% | 110 nM | ~15 nM |
